Test results from paper PMC6445163, “Design, synthesis, and evaluation of novel 2-phenylpropionic acid derivatives as dual COX inhibitory-antibacterial agents” (Journal of Enzyme Inhibition and Medicinal Chemistry, 2017).
Values after ≈ are worked out from the molar mass of the structure shown.

Legend:
[1] = tested on: Candida albicans (ATCC 24433); assay: broth dilution MIC (EUCAST EDef 7.1), resazurin; assay type: cell-based; details: ATCC24433, 24 h
Protocol: (§1) Microbiological studies were performed according to following guides: CLSI reference […]-A9 broth microdilution method[49] for bacterial strains and EUCAST definitive (EDef 7.1) method[50] for Candida species. Synthesized compounds were tested for their in vitro growth inhibitory activity against Staphylococcus aureus (ATCC 25923), Enterococcus faecalis (ATCC 29212), Listeria monocytogenes (ATCC 1911), Klebsiella pneumoniae (NCTC 9633), Escherichia coli (ATCC 35218), E. coli (ATCC 25922) Candida albicans (ATCC 24433) Candida krusei (ATCC 6258) and Candida parapsilosis (ATCC 22019). Chloramphenicol and ketoconazole were used as control drugs. The cultures were obtained from the Mueller-Hinton broth (Difco) for the bacterial strains after overnight incubation at 37 °C. The yeasts were maintained in Roswell Park Memorial Institute (RPMI) after overnight incubation at 37 °C. […] Testing was carried out in Mueller-Hinton broth and RPMI at pH =7, and the two-fold serial dilutions technique was applied. The last well on the microplates containing only inoculated broth was kept as controls and the last well with no growth of microorganism was recorded to represent the minimum inhibitory concentration (MIC) expressed in μg/mL. For both the antibacterial and antifungal assays, the compounds were dissolved in DMSO. […] The completed plates were incubated for 24 h. At the end of the incubation, resazurin (20 μg/mL) was added into each well and plates were incubated for 2 h. MIC values were determined using a microplate reader at […]. Synthesized compounds (6a-6m) were evaluated for antimicrobial activity against various microorganisms such as Staphylococcus aureus (ATCC 25923), Enterococcus faecalis (ATCC 29212), Listeria monocytogenes (ATCC 1911), Klebsiella pneumoniae (NCTC 9633), Escherichia coli (ATCC 35218), E. coli (ATCC 25922)Candida albicans (ATCC 24433) Candida krusei (ATCC 6258) and Candida parapsilosis (ATCC 22019). […] Chloramphenicol and ketoconazole were used as standard drugs in the activity test. […] Besides, the compounds 6d, 6h, 6l and 6m indicated stronger antibacterial activity than the other compounds in the series.

[2] = tested on: Candida parapsilosis (ATCC 22019); assay: broth dilution MIC (EUCAST EDef 7.1), resazurin; assay type: cell-based; details: ATCC22019, 24 h
Protocol: as §1

[3] = tested on: Candida krusei (ATCC 6258); assay: broth dilution MIC (EUCAST EDef 7.1), resazurin; assay type: cell-based; details: Pichia kudriavzevii, ATCC6258, 24 h
Protocol: as §1

COX-1 = target: T1, COX-1 (Ovis aries, UniProt P05979); assay: fluorometric COX-1 inhibitor screening kit assay; assay type: biochemical; details: for SI (selectivity index): IC50 (COX-1)/IC50 (COX-2); for IC50: fluorometric kit, 25 °C; for Selectivity: isoform preferred according to SI
T1 construct: purchased Biovision K548-100
T1 sequence (P05979 25-600): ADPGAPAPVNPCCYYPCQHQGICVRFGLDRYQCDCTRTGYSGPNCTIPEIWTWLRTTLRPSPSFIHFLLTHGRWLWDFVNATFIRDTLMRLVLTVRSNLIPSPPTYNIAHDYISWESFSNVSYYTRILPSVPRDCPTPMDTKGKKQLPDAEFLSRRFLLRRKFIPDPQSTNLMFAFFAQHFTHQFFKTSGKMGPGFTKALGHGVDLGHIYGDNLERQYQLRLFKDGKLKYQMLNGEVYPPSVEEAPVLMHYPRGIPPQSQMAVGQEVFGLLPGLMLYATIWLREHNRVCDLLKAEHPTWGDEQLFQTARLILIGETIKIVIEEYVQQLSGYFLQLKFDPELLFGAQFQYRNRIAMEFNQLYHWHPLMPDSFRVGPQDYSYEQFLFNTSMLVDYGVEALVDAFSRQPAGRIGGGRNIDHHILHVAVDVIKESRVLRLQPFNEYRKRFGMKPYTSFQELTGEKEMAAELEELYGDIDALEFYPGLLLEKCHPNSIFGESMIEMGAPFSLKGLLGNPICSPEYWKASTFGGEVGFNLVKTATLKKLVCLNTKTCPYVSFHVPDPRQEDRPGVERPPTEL
Protocol: Inhibitory potency of the compounds against COX-1 and COX-2 enzymes was determined using fluorometric COX-1 and COX-2 inhibitor screening kits (Biovision, Zurich, Switzerland). Experimental protocol was followed as described in the guides of the supplier[47]^,[48]. All of the pipettings in the assay were performed by Biotek Precision robotic system (BioTek Instruments, Inc., Winooski, VT). […] Appropriate two points (T1 and T2) in the linear range of the plot were chosen, and the corresponding fluorescence values (RFU1 and RFU2) were obtained. The slope for all samples, including enzyme control (EC), by dividing the net ΔRFU (RFU2–RFU1) values by the time ΔT (T2–T1) were calculated by using following equation: % Relative inhibition=(Slope of EC-Slope of S/Slope of EC)×100
This initial in vitro assay was done with two concentrations (10^−3 and 10^−4 M) for all compounds. […] The IC50 value was calculated from the plots of enzyme activity against concentrations by applying regression analyses on GraphPad Prism Version 5 (GraphPad Software, La Jolla, CA).
Selectivity indexes (SI) were expressed as IC50 (COX-1)/IC50 (COX-2). Selectivity toward COX-2 decreases as the corresponding SI decreases while selectivity toward COX-1 isoform increases as the corresponding SI decreases.

SMILES | MIC [1] [µg/mL] | MIC [2] [µg/mL] | MIC [3] [µg/mL] | SI (selectivity index) (COX-1) | IC50 (COX-1) [µM] | Selectivity (COX-1)
COc1ccc2sc(SCc3ccc(C(C)C(=O)O)cc3)nc2c1 (stereo not drawn) [Compound 6h, 2-(4-(((5-Methoxybenzo[d]thiazol-2-yl)thio)methyl)phenyl)propanoic acid] | 50 (≈ 139 µM) | 50 (≈ 139 µM) | 100 (≈ 278 µM) | 0.59 | 1.76 | COX-1
COc1ccc2[nH]c(SCc3ccc(C(C)C(=O)O)cc3)nc2c1 (stereo not drawn) [Compound 6l, 2-(4-(((5-Methoxy-1H-benzo[d]imidazol-2-yl)thio)methyl)phenyl)propanoic acid] | 50 (≈ 146 µM) | 50 (≈ 146 µM) | 50 (≈ 146 µM) | 0.60 | 1.4 | COX-1
